Measurements reported in patent US12121522B2, “Methods of treating cancer with an mTOR inhibitor” (Revolution Medicines, Inc., priority 2022, dated 2024).
“And” between values parts separate entries of the source, which are not always exact repeats. Equal entries are not always repeated.

System: advanced relapsed/refractory solid tumors
Assay: Clinical efficacy (RECIST v1.1), study RMC-5552-001
Format: in vivo, human
Method: Refer to FIG. 7 for a waterfall plot of best response in subjects treated at majority dose of 6 mg or 8 mg IV weekly (one hour infusion).
Subjects were evaluated at doses of 6 mg and higher. […] One patient discontinued treatment due to clinical progression without post-baseline scans. Three patients experienced radiographic progressive disease (PD).

[1] = 13 efficacy-evaluable patients at ≥6 mg
[2] = 27 efficacy-evaluable subjects, majority doses 6 mg or 8 mg IV weekly
[3] = endometrial PIK3CA, PTEN, TSC2, 8 mg QW
[4] = uterine CaSarc TSC1 LOF, 10 mg single dose, 6 mg QW

`CO[C@H]1C[C@@H]2CC[C@@H](C)[C@@](O)(O2)C(=O)C(=O)N2CCCC[C@H]2C(=O)O[C@H]([C@H](C)C[C@@H]2CC[C@@H](OC(=O)NCCOCCOCCOCCOCCOCCOCCOCCOCCC(=O)N3CCc4cc(Cn5nc(-c6ccc7oc(N)nc7c6)c6c(N)ncnc65)ccc4C3)[C@H](OC)C2)C[C@@H](O)[C@H](C)/C=C(\C)[C@@H](O)[C@@H](OC)C(=O)[C@H](C)C[C@H](C)/C=C/C=C/C=C/1C` [RMC-5552] was tested, and the “best response of stable disease (SD), subjects” value [1] was 8, the “confirmed partial response (PR), subjects” value [1] was 1 and the “discontinued due to clinical progression without post-baseline scans, patients” value [1] was “One”. For the same compound, the “radiographic progressive disease (PD), patients” value [1] was “Three”, the “Disease Control Rate (DCR)” value [2] was 74.1% and the “subjects with confirmed partial response” value [2] was “one”. For the same compound, the “subjects with stable disease as best response” value [2] was 19, the RECIST reduction (67F NSCLC STK11, TSC2, KRAS L19F, 8 mg QW) was 4% reduction and the RECIST reduction (76F NSCLC BRAF fusion, 10 mg single dose, 6 mg QW) was 22%. For the same compound, the “reduction in sum of target lesions (RECIST), subject with confirmed PR” value (H&N (salivary gland) cancer, PTEN mutation, 12 mg single dose then 6 mg QW) was 77.6% and 77%, the “subjects with Partial Response (PR)” value (cancer with PTEN mutation) was 1 and the “CA125, nadir” value [3] was “to nadir of 254; 9+ months”. For the same compound, the “CA125, peak” value [3] was “CA125 from peak of 1465”, the RECIST reduction [3] was 7% reduction and the “subjects with Partial Response (PR)” value (head and neck cancer, PTEN mutation) was 1. For the same compound, the “RECIST increase (mixed)” value (ovarian CA TSC1 LOF, 6 mg QW) was 19% increase, the “reduction in CA125” value (ovarian CA TSC1 LOF, 6 mg QW) was 72% reduction in CA125 and the “reduction in FDG avidity by PET/CT” value (ovarian CA TSC1 LOF, 6 mg QW) was “Strong: 50% reduction in”. For the same compound, the “reduction in tumor size, 1 subject” value (salivary gland cancer) was 63%, the RECIST reduction [4] was 4.4% and the “reduction in CA125” value [4] was “Strong: 37% reduction in”.
